The values below come from article PMC7585637 (Biomolecules & Therapeutics, 2020).

In general, IC50 refers to the concentration that gives 50% inhibition.

The target of the experiment is T1, SIRT1 (Homo sapiens, UniProt Q96EB6).
T1 sequence (Q96EB6 2-747): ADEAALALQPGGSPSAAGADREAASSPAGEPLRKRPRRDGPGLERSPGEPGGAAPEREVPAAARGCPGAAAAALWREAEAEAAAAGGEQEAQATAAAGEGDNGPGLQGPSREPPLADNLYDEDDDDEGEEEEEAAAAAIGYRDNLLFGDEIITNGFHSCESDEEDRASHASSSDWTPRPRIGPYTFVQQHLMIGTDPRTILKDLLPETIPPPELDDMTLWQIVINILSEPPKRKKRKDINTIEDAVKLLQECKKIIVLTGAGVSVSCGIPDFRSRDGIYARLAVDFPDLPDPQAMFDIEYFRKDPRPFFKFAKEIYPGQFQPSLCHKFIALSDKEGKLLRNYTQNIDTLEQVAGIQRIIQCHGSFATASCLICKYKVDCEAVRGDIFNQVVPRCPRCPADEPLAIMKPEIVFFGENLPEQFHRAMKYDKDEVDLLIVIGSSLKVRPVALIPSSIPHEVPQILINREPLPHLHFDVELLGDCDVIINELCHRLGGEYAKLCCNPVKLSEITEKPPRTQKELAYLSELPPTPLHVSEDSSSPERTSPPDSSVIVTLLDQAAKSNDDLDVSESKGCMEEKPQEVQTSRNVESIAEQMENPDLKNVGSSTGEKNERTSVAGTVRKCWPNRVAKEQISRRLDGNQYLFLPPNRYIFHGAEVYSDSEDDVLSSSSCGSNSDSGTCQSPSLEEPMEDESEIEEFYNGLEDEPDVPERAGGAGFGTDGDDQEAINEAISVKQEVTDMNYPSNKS
The experiment in a line: Fluor-de-Lys SIRT1 fluorometric deacetylase assay. Type of experiment: biochemical.

In the case of `CC(C)(C)c1cc(C=C2C(=O)NC(=S)NC2=O)cc(C(C)(C)C)c1O` [MHY2256, 5-(3,5-Di-tert-butyl-4-hydroxybenzylidene)-2-thioxodihydropyrimidine-4,6(1H,5H)-dione], the IC50 came out at 1020 nM.
